Data published in patent US5863950A, “HIV protease inhibitors” (Agouron Pharmaceuticals, Inc., priority 1994, dated 1999).
Values after ≈ are worked out from the molar mass of the structure shown. Like-named read-outs stand apart in the source and are kept apart here.

Tests used:
[1] = system: HIV-1 (CEM cells); experiment: Anti-HIV MTT assay, inhibition of HIV-induced cell killing, CEM cells; type: cell-based, HIV-1 isolates IIIB and/or RF; settings: Human immunodeficiency virus 1, CCRF-CEM, 144 h, CEM cell line (first position), 6 days, 37° C., read-out: Viral CEM
Source text: (§1) SRI has an established program for the primary antiviral analysis of compounds in microtiter assays which measure the ability of a selected compound to inhibit HIV-induced cell killing. This assay involves the conversion of the tetrazolium dye MTT to a colored formazan product by mitochondrial enzymes in metabolically active cells. This assay system is presently used at SRI to screen over 30,000 compounds per year. Briefly, the assay involves the infection of CEM or MT2 cells in round bottom 96-well plates. The compound of interest is added just prior to infection. Following 6 days of incubation at 37° C. the plates are stained with MTT. The results of the assay are quantitated spectrophotometrically on a Molecular Devices Vmax plate reader. The data is analyzed by linear regression utilizing an in-house software program to calculate antiviral activity. (IC25, IC50, IC95) and toxicity (TC25, TC50, TC95) as well as other values.
(§2) Primary antiviral assays are routinely performed in CEM or MT-2 cells.
(§3) Drugs will be solubilized in the appropriate vehicle such as distilled water or DMSO if necessary. Latex gloves, lab coats and masks are used during all phases of the handling process to prevent exposure to potentially harmful agents. The drug is prepared at the appropriate concentration and stored at -20° C. until used by the screening laboratory. The first dilution of each compound is made in a dilution tube with medium to yield a concentration two-fold that of the highest test concentration. Sterile titer tubes are then used to make serial one half-log dilutions of each compound. Following drug dilution, the diluted compound is added to the appropriate well of a 96-well microtiter plate. Up to 12 dilutions can be assayed conveniently in triplicate on a single plate with all appropriate controls including cell control, virus control, toxicity control, drug color control, medium control and plastic (background) control. When testing includes only six dilutions, two drugs can be assayed on a single microtiter plate. The drugs are added to the plate in a final volume of 100 microliters.
(§4) During the time the drug dilutions are prepared, cells are washed and counted. Viability is monitored by trypan blue dye exclusion and assays are not performed if the viability falls below 90%. Cells are maintained in an exponential growth phase and are split 1:2 on the day prior to assay to assure exponential growth rate.
(§5) For the primary screen, the cell lines utilized are CEM and MT-2. Unless otherwise indicated, the medium used is RPMI 1640 with 10% heat-inactivated fetal calf serum (FBS), glutamine and antibiotics.
(§6) Cells are propagated at 37° C. in an atmosphere of 5% CO2 in air. The virus employed for this work is HIV-1 isolates IIIB and/or RF, which are prepared by an acute infection process.
(§7) Briefly, virus-infected cells are pelleted on a daily basis beginning at three days post-infection until the virus has killed all of the cells in the culture. Reverse transcriptase activity and p24 ELISA are used to identify pools with the greatest amount of virus.
(§8) These 24-hour harvests are pooled, filtered and frozen at -90° C. Prior to use in the assay, the infectious pool of virus is titered on all available cell lines in order to determine the amount of virus required in the antiviral assay.
(§9) In general, pools produced by the acute infection method require the addition of one microliter of infectious virus per well resulting in the screening of drugs at a multiplicity of infection of 0.01. In this manner enough virus is prepared and frozen to complete over one thousand microtiter plates, allowing the testing of up to two thousand compounds from a single stock of infectious virus. The use of a single stock of virus for a long period of testing has very favorable effects on the repeatability of the assay systems.
(§10) Virus infection of the CEM and MT-2 cells for the antiviral assay is carried out in a bulk infection process. […]

[2] = system: HIV-1 (MT-2 cells); experiment: Anti-HIV MTT assay, inhibition of HIV-induced cell killing, MT-2 cells; type: cell-based, HIV-1 isolates IIIB and/or RF; settings: Human immunodeficiency virus 1, MT2, 144 h; MT-2 cells (second position), 6 days, 37° C., MTT; read-out: Viral MT-2
Source text: as §1, §2, §3, §4, §5, §6, §7, §8, §9, §10

[3] = biological target: T1, HIV-1 protease (Human immunodeficiency virus type 1 group M subtype B, UniProt P04585); experiment: biochemical; type: biochemical
T1 construct: purified HIV-1 protease
Description: 1. Proteolytic activity of purified HIV-1 protease was routinely measured using the chromogenic assay developed by Richards et al. (J. Biol. Chem. 265: 7733 (1990)). Synthetic peptide His-Lys-Ala-Arg-Val-Leu-Phe (pNO2)-Glu-Ala-Nle-Ser-NH2 (American Peptide Company) was used as the substrate.
2. The assay was carried out in 0.5M NaCl, 50 mM MES pH 5.6, 2% DMSO (dimethylsulfoxide) at 37° C. Cleavage of the scissile bond between leucine and paranitro-phenylalanine (Phe(pNO2)) was assayed by spectrophotometric monitoring of the decrease in absorbance at 305 nm. Initial velocity was determined as the rate of decline of absorbance during the first 100 seconds of reaction.
3. […] Between 15-25 concentrations of inhibitor were added and velocity of reaction was measured at each of the concentrations, as described above.
4. Inhibition constants were calculated using the method of Jackson et al. (Adv. in Enzyme Regulation 22: 187 (1984)).

[4] = 0.5M NaCl, 50 mM MES pH 5.6, 2% DMSO, 37° C., 200 μM substrate

For `CCC1(N(CCO)C(=O)c2ccccc2CC[C@@H](O)Cc2ccc(C)cc2C(=O)N(CCO)C(C)(C)c2ccccc2)CCCC1` [Example 112], the IC50 [1] was 0.54 µg/mL (≈ 0.859 µM) and the IC50 [2] was 1.47 µg/mL (≈ 2.34 µM).
`CC(C)(C)NC(=O)c1c(CCC(O)Cc2ccccc2C(=O)N(Cc2ncc[nH]2)C(C)(C)C)ccc2ccccc12` (stereo not drawn) [Example 12] gave an IC50 [3, 4] of 0.82 µM, a Ki [3, 4] of 0.79 µM and an IC50 [1] of 29.5 µg/mL (≈ 53.2 µM).
For `Cc1ccc(CCC(O)Cc2ccccc2C(=O)N(CCO)C2(C)CCCC2)c(C(=O)N(CCO)C(C)(C)C)c1` (stereo not drawn) [Example 4], the IC50 [3, 4] was 0.72 µM and the Ki [3, 4] was 0.42 µM.
With `CC(C)(C)NC(=O)c1ccccc1CCC(O)Cc1ccccc1C(=O)NC(C)(C)C` (stereo not drawn) [Example 25] the IC50 [3, 4] was 18 µM.
In the case of `CC(C)(C)NC(=O)c1c(CCC(O)Cc2ccccc2C(=O)N(c2ccccc2)C(C)(C)C)ccc2ccccc12` (stereo not drawn) [Example 69], the “percent (inhibition)” value ([3]; at 10 (μM)) is reported as 40%.
For `CC(C)(C)NC(=O)c1ccccc1SCC(O)Cc1ccc2ccccc2c1C(=O)NC(C)(C)C` (stereo not drawn) [Example 52], the IC50 [3, 4] was 25 µM.
`CC(C)(C)N(CCO)C(=O)c1ccccc1CCC(=O)C(F)c1ccccc1C(=O)N(CCO)C(C)(C)c1ccccc1` (stereo not drawn) [Example 70] was tested, and the IC50 [3, 4] was 9 µM.
`CC(O)(CCc1ccccc1C(=O)NC(C)(C)C)Cc1ccccc1C(=O)NC(C)(C)C` (stereo not drawn) [Example 34] was tested, and the “percent (inhibition)” value ([3]; at 100 (μM)) was 40%.
Compound `CC(C)(C)N(CCO)C(=O)c1ccccc1CCC(O)Cc1ccccc1C(=O)N(Cc1ccccc1)C(C)(C)C` (stereo not drawn) [Example 64] has an IC50 [3, 4] of 8.3 µM and a Ki [3, 4] of 7.9 µM.
`CC(C)(C)N(CCO)C(=O)c1ccccc1CCC(O)CCc1ccccc1C(=O)N(CCO)C(C)(C)C` [Example 33] showed an IC50 [3, 4] of 6 µM.
`CC(C)(C)N(CCO)C(=O)c1ccccc1CC(O)C(O)Cc1ccccc1C(=O)N(CCO)C(C)(C)C` (stereo not drawn) [Example 58] gave an IC50 [3, 4] of 9.6 µM and a Ki [3, 4] of 7.7 µM.
Compound `CC(C)(C)NC(=O)c1ccccc1CC(O)C(O)Cc1ccccc1C(=O)NC(C)(C)C` (stereo not drawn) [Example 56] has an IC50 [3, 4] of 64 µM and a Ki [3, 4] of 56 µM.
Work on `CC(C)(C)NC(=O)c1cc2ccccc2cc1CCC(O)Cc1ccccc1C(=O)N(CCO)C(C)(C)C` (stereo not drawn) [Example 60] yielded an IC50 [3, 4] of 4.1 µM and a Ki [3, 4] of 2.7 µM.
`CC(C)(C)NC(=O)c1c(CCC(O)Cc2ccccc2-c2nccc3ccccc23)ccc2ccccc12` (stereo not drawn) [Example 16] was tested, and the “percent (inhibition)” value ([3]; at 50 (μM)) was 20%.
In the case of `CC(C)(C)NC(=O)c1c(CCC(O)Cc2ccc3ccccc3c2C(=O)NC(C)(C)C)ccc2ccccc12` (single isomer, unassigned) [Example 49], the IC50 [3] is reported as 0.88 µM and the Ki [3] is reported as 0.48 µM.
With `CC(C)(C)NC(=O)c1c(CCC(O)CCc2ccc3ccccc3c2C(=O)NC(C)(C)C)ccc2ccccc12` [Example 32] the IC50 [3, 4] was 7 µM.
For `CC(C)(C)N(CCO)C(=O)c1ccccc1CCC(O)C(F)c1ccccc1C(=O)N(CCO)C(C)(C)c1ccccc1` (stereo not drawn) [Example 71], the IC50 [3, 4] was 1.3 µM and the Ki [3, 4] was 0.879 µM.
